Literature values in patent US10827752B2, “Disinfectant composition” (priority 2010, dated 2020).
“Also recorded” adds a separate entry of the source.

Tested on: spores
Details: approximately 2500 ppm of peracetic acid

Compound: CC(=O)OO [peracetic acid]
- sporicidal action: excellent sporicidal action; also recorded: excellent sporicidal results
